Values of other authors as cited in patent US20050118266A1, “Sustained/controlled release solid formulation as a novel drug delivery system with reduced risk of dose dumping” (priority 2002, published 2005).

Settings: according to Biopharmaceutics Classification System

SMILES	BCS class	solubility (BCS category)
O=C(O)Cc1ccccc1Nc1c(Cl)cccc1Cl [diclofenac sodium]	Class II	poorly soluble
NCC1(CC(=O)O)CCCCC1 [gabapentin]	–	highly soluble
CC[C@H](C)C(=O)O[C@H]1C[C@H](O)C=C2C=C[C@H](C)[C@H](CC[C@@H](O)C[C@@H](O)CC(=O)O)[C@H]21 [pravastatin sodium]	–	highly soluble
CNC(=C[N+](=O)[O-])NCCSCc1ccc(CN(C)C)o1 [ranitidine]	–	highly soluble
Cc1cccc(Nc2ccncc2S(=O)(=O)NC(=O)NC(C)C)c1 [torasemide]	Class I	highly soluble
